pKi: −log10 of the molar value.

The test addresses T1, DLK (Homo sapiens, UniProt Q12852).
T1 sequence (Q12852 1-520): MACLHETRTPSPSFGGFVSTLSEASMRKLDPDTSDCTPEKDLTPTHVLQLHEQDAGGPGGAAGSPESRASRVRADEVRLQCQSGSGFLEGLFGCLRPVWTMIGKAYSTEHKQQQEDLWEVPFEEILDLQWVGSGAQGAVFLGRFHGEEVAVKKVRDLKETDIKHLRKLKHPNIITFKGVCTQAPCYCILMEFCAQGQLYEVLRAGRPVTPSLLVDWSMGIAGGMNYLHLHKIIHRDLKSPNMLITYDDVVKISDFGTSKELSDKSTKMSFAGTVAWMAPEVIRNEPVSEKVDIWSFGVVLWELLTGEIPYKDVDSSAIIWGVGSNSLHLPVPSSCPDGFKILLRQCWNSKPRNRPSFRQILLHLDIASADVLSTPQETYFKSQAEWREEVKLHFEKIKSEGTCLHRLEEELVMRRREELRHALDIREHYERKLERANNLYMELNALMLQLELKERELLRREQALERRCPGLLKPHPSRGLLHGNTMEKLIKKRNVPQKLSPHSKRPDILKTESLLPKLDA
The experiment in a line: biochemical.
The molecule `Nc1ncc(-c2cc(C3CCOCC3)n(C3CC(F)(F)C3)n2)cc1F` [Compound 37, 5-(1-(3,3-difluorocyclobutyl)-5-(tetra-hydro-2H-pyran-4-yl)-1H-pyrazol-3-yl)-3-fluoropyridin-2-amine] gave a pKi of under 6.00.

`CC1(Cn2nc(-c3cnc(N)c(Cl)c3)cc2[C@H]2[C@@H]3CN(CC(F)(F)F)C[C@@H]32)COC1` [Compound 112, 3-chloro-5-(1-((3-methyloxetan-3-yl)methyl)-5-((1R,5S,6r)-3-(2,2,2-trifluoro-ethyl)-3-azabicyclo[3.1.0]hexan-6-yl)-1H-pyrazol-3-yl)pyridin-2-amine] showed a pKi of under 6.00.

In turn, `CC(C)n1nc(-c2cnc3c(c2)C(C)(C)C(=O)N3)cc1C1CCN(C2COC2)CC1` [Compound 80, 5-(1-isopropyl-5-(1-(oxetan-3-yl)pipe-ridin-4-yl)-1H-pyrazol-3-yl)-3,3-di-methyl-1H-pyrrolo[2,3-b]pyridin-2 (3H)-one] gave a pKi of under 6.00.

Molecule `CC(C)n1nc(-c2cnc3[nH]cnc3c2)cc1C1CN(C2COC2)C1` [Compound 62, 6-(1-isopropyl-5-(1-(oxetan-3-yl)aze-tidin-3-yl)-1H-pyrazol-3-yl)-3H-imi-dazo[4,5-b]pyridine] had a pKi of under 6.00.

Molecule `Cc1c[nH]c2ncc(-c3cc(C4CCOC4)n(CC4CC4)n3)cc12` (racemic) [Compound 13, 5-(1-(cyclopropylmethyl)-5-(tetrahydrofuran-3-yl)-1H-pyrazol-3-yl)-3-methyl-1H-pyrrolo[2,3-b]pyridine] had a negative-log Ki (pKi) of 7.54.

Consider `COC1(c2cc(-c3cnc(N)c(C(F)(F)F)c3)nn2C(C)C)CCN(C2COC2)CC1` [Compound 103, 5-(1-isopropyl-5-(4-methoxy-1-(oxetan-3-yl)piperidin-4-yl)-1H-pyrazol-3-yl)-3-(trifluoromethyl)pyridin-2-amine], for which the pKi was under 6.00.

`CC(C)n1nc(-c2cnc3c(c2)C(C)(C)C(=O)N3)cc1C1CN(C2COC2)C1` [Compound 61, 5-(1-isopropyl-5-(1-(oxetan-3-yl)aze-tidin-3-yl)-1H-pyrazol-3-yl)-3,3-dimeth-yl-1H-pyrrolo[2,3-b]pyridin-2(3H)-one] showed a pKi of under 6.00.

In turn, `CC(C)n1nc(-c2cnc3[nH]cnc3c2)cc1C1CCN(C2COC2)CC1` [Compound 79, 6-(1-isopropyl-5-(1-(oxetan-3-yl)pipe-ridin-4-yl)-1H-pyrazol-3-yl)-3H-imi-dazo[4,5-b]pyridine] had a negative-log Ki (pKi) of under 6.00.

`Cc1cc(-c2cc(C3CCN(C4COC4)CC3)n(C(C)C)n2)cnc1N` [Compound 82, 5-(1-isopropyl-5-(1-(oxetan-3-yl)pipe-ridin-4-yl)-1H-pyrazol-3-yl)-3-meth-ylpyridin-2-amine] had a pKi of under 6.00.

For `CC(C)n1nc(-c2cnc3c(c2)OCCN3)cc1C1CCN(C2COC2)CC1` [Compound 94, 7-(1-isopropyl-5-(1-(oxetan-3-yl)pipe-ridin-4-yl)-1H-pyrazol-3-yl)-3,4-di-hydro-2H-pyrido[3,2-b][1,4]oxazine], the pKi is under 6.00.

For orientation: pKi means the negative decadic logarithm of the Ki, by convention in mol/L. High values mean a low Ki, low ones a high Ki.
